Laboratory results published in ChEMBL document CHEMBL1255418, “Occurrence of ST23 complex phylogroup A Escherichia coli isolates producing extended-spectrum AmpC beta-lactamase in a French hospital” (2010).
Values after ≈ are worked out from the molar mass of the structure shown.

Columns and labels:
Assay type in all cases: functional
Escherichia coli [1] = experiment: Antimicrobial activity against Escherichia coli isolate 8009989 with AmpC beta-lactamase H296P mutation
Escherichia coli [2] = experiment: Antimicrobial activity against wild-type AmpC producing Escherichia coli ATCC 25922
Escherichia coli [3] = experiment: Antimicrobial activity against Escherichia coli isolate 7010738 with AmpC beta-lactamase H296P mutation
Escherichia coli [4] = experiment: Antimicrobial activity against Escherichia coli isolate 5000869 with AmpC beta-lactamase H296P mutation
Escherichia coli [5] = experiment: Antimicrobial activity against Escherichia coli isolate 7014517 with AmpC beta-lactamase 295 Ins LAA mutation
Escherichia coli [6] = experiment: Antimicrobial activity against AmpC producing Escherichia coli Top10 isolate 7014517
Escherichia coli [7] = experiment: Antimicrobial activity against AmpC producing Escherichia coli Top10 isolate 8009162
Escherichia coli [8] = experiment: Antimicrobial activity against AmpC producing Escherichia coli Top10 isolate 25922
Escherichia coli [9] = experiment: Antimicrobial activity against Escherichia coli isolate 8009162 AmpC with A292V mutation
Escherichia coli [10] = experiment: Antimicrobial activity against Escherichia coli Top10
Escherichia coli [11] = experiment: Antimicrobial activity against Escherichia coli isolate 8009162 with AmpC beta-lactamase A292V mutation
Escherichia coli [12] = experiment: Antimicrobial activity against Escherichia coli isolate 7008211 with AmpC beta-lactamase H296P mutation
Escherichia coli [13] = experiment: Antimicrobial activity against Escherichia coli isolate 7008153 with AmpC beta-lactamase H296P mutation
Escherichia coli [14] = experiment: Antimicrobial activity against Escherichia coli isolate 7008710 with AmpC beta-lactamase S287N mutation
Escherichia coli [15] = experiment: Antimicrobial activity against Escherichia coli isolate 8009389 with AmpC beta-lactamase H296P mutation
Escherichia coli [16] = experiment: Antimicrobial activity against Escherichia coli isolate 4009273 with AmpC beta-lactamase S287N mutation
Escherichia coli [17] = experiment: Antimicrobial activity against Escherichia coli isolate 7014517 AmpC with LAA insertion at position 295
Escherichia coli [18] = experiment: Antimicrobial activity against Escherichia coli isolate 7001178 with AmpC beta-lactamase S287N mutation

Row | SMILES | MIC (Escherichia coli [1]) | MIC (Escherichia coli [2]) | MIC (Escherichia coli [3]) | MIC (Escherichia coli [4]) | MIC (Escherichia coli [5]) | MIC (Escherichia coli [6]) | MIC (Escherichia coli [7]) | MIC (Escherichia coli [8]) | MIC (Escherichia coli [9]) | MIC (Escherichia coli [10]) | MIC (Escherichia coli [11]) | MIC (Escherichia coli [12]) | MIC (Escherichia coli [13]) | MIC (Escherichia coli [14]) | MIC (Escherichia coli [15]) | MIC (Escherichia coli [16]) | MIC (Escherichia coli [17]) | MIC (Escherichia coli [18])
1 | CO/N=C(\C(=O)N[C@@H]1C(=O)N2C(C(=O)[O-])=C(C[N+]3(C)CCCC3)CS[C@H]12)c1csc(N)n1 [CEFEPIME] | 8 µg/mL (≈ 16.6 µM) | < 0.06 µg/mL | 8 µg/mL (≈ 16.6 µM) | 4 µg/mL (≈ 8.32 µM) | 8 µg/mL (≈ 16.6 µM) | 4 µg/mL (≈ 8.32 µM) | 0.75 µg/mL (≈ 1.56 µM) | 0.06 µg/mL (≈ 0.125 µM) | 0.75 µg/mL (≈ 1.56 µM) | < 0.06 µg/mL | 0.75 µg/mL (≈ 1.56 µM) | 16 µg/mL (≈ 33.3 µM) | 16 µg/mL (≈ 33.3 µM) | 8 µg/mL (≈ 16.6 µM) | 16 µg/mL (≈ 33.3 µM) | 4 µg/mL (≈ 8.32 µM) | 8 µg/mL (≈ 16.6 µM) | 2 µg/mL (≈ 4.16 µM)
2 | CO/N=C(\C(=O)N[C@@H]1C(=O)N2C(C(=O)O)=C(COC(C)=O)CS[C@H]12)c1csc(N)n1 [CEFOTAXIME] | 8 µg/mL (≈ 17.6 µM) | < 0.06 µg/mL | 8 µg/mL (≈ 17.6 µM) | 4 µg/mL (≈ 8.78 µM) | 16 µg/mL (≈ 35.1 µM) | 32 µg/mL (≈ 70.3 µM) | 12 µg/mL (≈ 26.3 µM) | 0.75 µg/mL (≈ 1.65 µM) | 8 µg/mL (≈ 17.6 µM) | < 0.06 µg/mL | 8 µg/mL (≈ 17.6 µM) | 8 µg/mL (≈ 17.6 µM) | 16 µg/mL (≈ 35.1 µM) | 16 µg/mL (≈ 35.1 µM) | 8 µg/mL (≈ 17.6 µM) | 8 µg/mL (≈ 17.6 µM) | 16 µg/mL (≈ 35.1 µM) | 8 µg/mL (≈ 17.6 µM)
3 | CC(C)(O/N=C(\C(=O)N[C@@H]1C(=O)N2C(C(=O)[O-])=C(C[n+]3ccccc3)CS[C@H]12)c1csc(N)n1)C(=O)O [CEFTAZIDIME] | ≥ 64 µg/mL | 0.09 µg/mL (≈ 0.165 µM) | ≥ 64 µg/mL | ≥ 64 µg/mL | ≥ 64 µg/mL | > 256 µg/mL | > 256 µg/mL | 4 µg/mL (≈ 7.32 µM) | 64 µg/mL (≈ 117 µM) | < 0.06 µg/mL | ≥ 64 µg/mL | ≥ 64 µg/mL | ≥ 64 µg/mL | ≥ 64 µg/mL | ≥ 64 µg/mL | ≥ 64 µg/mL | 64 µg/mL (≈ 117 µM) | ≥ 64 µg/mL
